The values that follow come from paper PMC11596366, “Silybin Derivatives Produced by γ-Irradiation and Their Tyrosinase Inhibitory Activities” (Molecules, 2024).

In general, IC50 refers to the concentration needed to halve the response being measured. Low values mean greater potency in that assay, high ones weaker potency in that assay. As usually defined, the inhibition is the drop in the measured response relative to a control, in per cent. Low readings indicate little suppression, high ones strong suppression.

One assay addresses Mushroom tyrosinase (Agaricus bisporus, UniProt C7FF04). The assay can be described thus: Mushroom tyrosinase inhibitory activity (L-tyrosine substrate, OD 475 nm). It counts as biochemical. The protocol:
Mushroom tyrosinase (Sigma-Aldrich Co., St. Louis, MO, USA) was used for in vitro assays with slight modifications from a previously described method. […] After 5 min incubation at room temperature, 0.1 mL L-tyrosine (2 mM) was added and incubated for additional 20 min.

A further assay deals with tyrosinase. Further details: method as in PMID 30871862. The note with it: against both monophenolase and diphenolase; cited from earlier work.

Sequence of Mushroom tyrosinase (C7FF04 2-392): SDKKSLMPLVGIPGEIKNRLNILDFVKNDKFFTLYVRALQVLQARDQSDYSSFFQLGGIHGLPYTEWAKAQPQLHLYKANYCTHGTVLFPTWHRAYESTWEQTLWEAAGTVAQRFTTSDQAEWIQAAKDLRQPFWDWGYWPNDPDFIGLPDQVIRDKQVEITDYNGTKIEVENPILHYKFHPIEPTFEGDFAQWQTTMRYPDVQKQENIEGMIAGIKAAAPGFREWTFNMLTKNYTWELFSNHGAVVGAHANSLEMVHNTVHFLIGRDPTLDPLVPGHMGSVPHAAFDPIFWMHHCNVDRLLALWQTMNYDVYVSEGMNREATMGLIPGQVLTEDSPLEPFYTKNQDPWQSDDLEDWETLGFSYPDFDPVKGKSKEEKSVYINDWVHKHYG
Sequence of Mushroom tyrosinase (G1K3P4 entry or part of it, further chain): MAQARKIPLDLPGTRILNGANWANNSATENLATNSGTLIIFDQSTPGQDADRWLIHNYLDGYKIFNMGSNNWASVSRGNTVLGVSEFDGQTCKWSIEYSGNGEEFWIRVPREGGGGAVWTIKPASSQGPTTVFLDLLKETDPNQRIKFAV

For `COc1cc(C2Oc3cc([C@H]4Oc5cc(O)cc(O)c5C(=O)[C@@H]4O)ccc3OC2CO)ccc1O` (stereo partly drawn) [Compound 0], the “IC50” value against Mushroom tyrosinase (non-irradiated and irradiated silybin samples, arbutin positive control, L-tyrosine 2 mM, pH 6.5) is above 200 µg/mL. Further, the “Inhibition of Tyrosinase (%)” value is given as 5.2 ± 0.2% at Mushroom tyrosinase (sample concentration 50 μg/mL, L-tyrosine 2 mM, pH 6.5); 11.4 ± 0.5% at Mushroom tyrosinase (sample concentration 100 μg/mL, L-tyrosine 2 mM, pH 6.5); 26.5 ± 0.8% at Mushroom tyrosinase (sample concentration 200 μg/mL, L-tyrosine 2 mM, pH 6.5).
In the case of `COc1cc(C2Oc3cc([C@H]4Oc5cc(O)cc(O)c5C(=O)[C@@H]4O)ccc3OC2CO)ccc1O` (stereo partly drawn) [silybin (1), silybin], the “type of tyrosinase inhibition” value with tyrosinase was “mixed type I (KI < KIS) inhibition”.
Regarding `OC[C@H]1O[C@@H](Oc2ccc(O)cc2)[C@H](O)[C@@H](O)[C@@H]1O` [Arbutin, reference compound], at 2300 µg/mL the inhibition against Mushroom tyrosinase (concentration 2300 μg/mL, positive control) was 50 ± 2.1%.
